From patent US20070073039A1, “Peptides that inhibit viral infections” (priority 2005, published 2007)
No end group written: not given here.

What was measured:
Dengue-2 = Dengue-2 infection of Vero cells, Intracellular FACS Assay; assay type: cell-based; conditions: 20 μM, Vero cells 3 days post-infection; for % of Dead cells PI: propidium iodide staining
Method: Intracellular FACS Assay: Vero cells were seeded for 24 h pre-infection in 6-well plates. Cells were exposed to Dengue-2 in the presence of increasing concentrations of peptide (or DMSO as control). Viruses and peptide were washed away 2 h post-infection. Cells were taken for intracellular staining 3 days post-infection. Cells were stained with appropriate isotype control, Dengue Env, Dengue capsid or tubulin antibodies. Cells were analyzed by FACS.

HCV [1] = test: HCV focus reduction assay; assay type: cell-based, Hepatitis C virus (JFH-1); conditions: for Inhibition of HCV infection: cell culture model of HCV infection; for Fold Inhibition: inhibition of HCV infection; for Fold Inhibition / % of Mock: peptide approximately 20 μM, Huh-7.5.1 cells, 3 days; for % of Mock: number of HCV foci as % of mock (0.5% DMSO); for Fold inhibition of HCV infection: peptide library screen, approximately 20 μM; for Focus Reduction (72 h): working concentration 18.4-27.5 μM per peptide, Mock 51
Method: To identify peptides that display antiviral activity against HCV infection, the peptide library was screened by an HCV focus reduction assay. The peptides were constituted in 100% DMSO at a final concentration 10 mg/mL, and stored in −20° C. The peptide stock solution was diluted 1:200 to a final concentration approximately 20 μM in complete DMEM growth medium containing 50 focus forming units (ffu) of HCV. The virus-peptide mixture was transferred to Huh-7.5.1 cells at a density of 8000 cells per well in a 96-well plate. After adsorption for 4 hours at 37° C., the inoculum was removed. The cells were washed 2 times, overlaid with 120 μL fresh growth medium and incubated at 37° C. After 3 days of culture, the cells were fixed with paraformaldehyde and immunostained with antibody against HCV nonstructural protein NS5A. The numbers of HCV foci were counted under fluorescent microscopy and the result is expressed as percentage (%) of mock with no peptide treatment but containing solvent 0.5% DMSO.
To determine whether the antiviral activity of peptide 1 is dependent on its primary amino acid sequence, four derivative peptides from peptide 1 were synthesized to a purity >95%. The four derivatives having the same composition of amino acids included (1) the reversed the sequence of peptide 1 (also called retro-peptide); (2) scrambled hydrophobic amino acids; (3) scrambled hydrophilic amino acids; and (4) a derivative in which the aspartic acid residues (D) were replaced with proline residues (P). The antiviral activity of the peptides was examined by HCV focus reduction assay at three peptide concentrations: 18 μM, 6 μM and 2 μM, as described above.

HCV [2] = test: Intracellular HCV RNA by real time RT-QPCR after infection of Huh-7.5.1 cells with and without peptide; assay type: cell-based, Hepatitis C virus (JFH-1); conditions: for HCV RNA fold inhibition 24 h 25 μM / HCV RNA fold inhibition 72 h 25 μM: Huh-7.5.1 cells, MOI 0.1, normalized to GAPDH; for Fold Inhibition on HCV RNA (24 h) / Fold Inhibition on HCV RNA (72 h): working concentration 18.4-27.5 μM per peptide
Method: To accurately quantify the inhibitory effect of the selected peptides on HCV infection, intracellular HCV RNA was measured after infection by real time RT-QPCR with and without peptide treatment. The peptide stock solution was diluted 1:100 and mixed with equal volume of viral supernatant (propagated from day 18 virus preparation post transfection) to a final concentration approximately 20 μM. The virus with peptide or 0.5% DMSO solvent control was then used to infect Huh-7.5.1 cells at a multiplicity of infection (MOI) of 0.1. After an adsorption for 4 hours at 37° C., the inoculum was removed. The cells were washed 2 times, overlaid with 120 μL fresh growth medium and incubated at 37° C. At the indicated time points, total cellular RNA was isolated by the guanidine thiocyanate method. The HCV RNA transcript level was measured by real time RT-QPCR with the primers 5′—
normalized to cellular GAPDH levels.
To define the antiviral action of peptide #1 (SEQ ID NO:43), the antiviral activity of a series of N-terminal and C-terminal truncations of peptide 1 was analyzed using the focus reduction assay and by measuring the reduction in intracellular HCV RNA as described.

[3] = Preliminary in vivo toxicity in mice
Method: As a preliminary measurement of the in vivo cytotoxicity of the peptides 1, 2 and 3 (see Table 4) a group of three mice (BALB/c mice, 7 weeks old, about 23 g) were each injected with 92 μg L-type peptide 1 ( ˜4 mg/kg) in 200 μL PBS (spun 14,000 rpm for 3 minutes before injection). In the control group, each of three mice was given 200 μL PBS containing 5% DMSO. The mice were monitored for acute toxicity during the first 3 hours after injection.
No change in appearance, activity or behavior was observed. The mice were then weighed on days 0, 3, 5, 7 and 10. Peptide-injected mice gained weight at the same rate as the controls.

## DIWDWICEVLSDFK [^N-14mer]
Dengue-2
  % of Dead cells PI: 0.76%

## IMDMIAGAHWGVLAGIAY [Peptide 9]
HCV [1]
  Inhibition of HCV infection: strongly inhibit HCV infection
  Fold Inhibition: 42.0 fold
  % of Mock: 2.4%
  Fold inhibition of HCV infection: more than ten-fold
HCV [2]
  HCV RNA fold inhibition 24 h 25 μM: 10 fold
  HCV RNA fold inhibition 72 h 25 μM: 22 fold

## WICEVLSDFK [^N-10mer]
HCV [1]
  Focus Reduction (72 h): 45
HCV [2]
  Fold Inhibition on HCV RNA (24 h): 1.1 fold
  Fold Inhibition on HCV RNA (72 h): 1.0 fold

## ATQTFLATCINGVCWTVY [Peptide 12]
HCV [1]
  Inhibition of HCV infection: strongly inhibit HCV infection
  Fold Inhibition: 42.0 fold
  % of Mock: 2.4%
  Fold inhibition of HCV infection: more than ten-fold
HCV [2]
  HCV RNA fold inhibition 24 h 25 μM: 8 fold
  HCV RNA fold inhibition 72 h 25 μM: 5 fold

## DWICEVLSDFKTWLKAKL [Peptide 13]
HCV [1]
  Inhibition of HCV infection: strongly inhibit HCV infection
  Fold Inhibition: 42.0 fold
  % of Mock: 2.4%
  Fold inhibition of HCV infection: more than ten-fold
HCV [2]
  HCV RNA fold inhibition 24 h 25 μM: 7 fold
  HCV RNA fold inhibition 72 h 25 μM: 2 fold

## ALYVGDLCGSVFLVGQLF [Peptide 7]
HCV [1]
  Inhibition of HCV infection: strongly inhibit HCV infection
  Fold Inhibition: 100.0 fold
  % of Mock: 1.0%
  Fold inhibition of HCV infection: more than ten-fold
HCV [2]
  HCV RNA fold inhibition 24 h 25 μM: 20 fold
  HCV RNA fold inhibition 72 h 25 μM: 11 fold

## IFLLALLSCLTVPASAYQ [Peptide 8]
HCV [1]
  Inhibition of HCV infection: strongly inhibit HCV infection
  Fold Inhibition: 42.0 fold
  % of Mock: 2.4%
  Fold inhibition of HCV infection: more than ten-fold
HCV [2]
  HCV RNA fold inhibition 24 h 25 μM: 18 fold
  HCV RNA fold inhibition 72 h 25 μM: 7 fold

## CSCC[C@H](NC(=O)[C@H](CO)NC(=O)[C@H](CS)NC(=O)[C@H](CS)NC(=O)[C@@H](NC(=O)[C@@H](NC(=O)[C@H](CC(=O)O)NC(=O)[C@H](CCC(=O)O)NC(=O)[C@@H](NC(=O)[C@H](CC(=O)O)NC(=O)[C@H](C)NC(=O)CNC(=O)[C@H](CO)NC(=O)[C@@H](N)CO)[C@@H](C)O)C(C)C)C(C)C)C(=O)N[C@@H](CO)C(=O)N[C@@H](Cc1ccc(O)cc1)C(=O)N[C@@H](CO)C(=O)N[C@@H](Cc1c[nH]c2ccccc12)C(=O)O [Peptide 3]
[3]; 92 μg ( ˜4 mg/kg) in 200 μL PBS, acute toxicity first 3 hours, weight to day 10
  In vivo toxicity observation: Peptides 1, 2 and 3 are Nontoxic in C57BL/6 Mice
[3]; day 0, ˜4 mg/kg injected
  Weight(g) (d.0): 24.1 g
[3]; day 3
  Weight(g) (d.3): 24.1 g
[3]; day 5
  Weight(g) (d.5): 24.7 g
[3]; day 7
  Weight(g) (d.7): 24.7 g
[3]; day 10
  Weight(g) (d.10): 24.7 g

## SWLRDIWDWICEV [^C-13mer]
Dengue-2
  % of Dead cells PI: 3.04%

## SWLRDIWDWI [^C-10mer]
HCV [1]
  Focus Reduction (72 h): 65
HCV [2]
  Fold Inhibition on HCV RNA (24 h): 0.8 fold
  Fold Inhibition on HCV RNA (72 h): 0.6 fold
Dengue-2; DMSO 41.26
  % GATED, Dengue α-Capsid (9A7): 37.21%
Dengue-2
  % of Dead cells PI: 1.2%

## SWLRDIWD [^C-8mer]
HCV [1]
  Focus Reduction (72 h): 58
HCV [2]
  Fold Inhibition on HCV RNA (24 h): 1.3 fold
  Fold Inhibition on HCV RNA (72 h): 1.0 fold

## WDWICEVLSDFK [^N-12mer]
HCV [1]
  Focus Reduction (72 h): 38
HCV [2]
  Fold Inhibition on HCV RNA (24 h): 2.2 fold
  Fold Inhibition on HCV RNA (72 h): 1.4 fold

## CEVLSDFK [^N-8mer]
HCV [1]
  Focus Reduction (72 h): 53
HCV [2]
  Fold Inhibition on HCV RNA (24 h): 1.1 fold
  Fold Inhibition on HCV RNA (72 h): 0.7 fold

## LYGNEGCGWAGWLLSPRG [Peptide 10]
Dengue-2
  % of Dead cells PI: 4.05%
